# From the kinase profiling compilation of Christmann-Franck et al. (2016)
# Experiments:
# TTK (human) = TTK (human) (UniProt P33981); experiment: KINOMEscan competition binding; conditions: compound 10.0 µM
# PLK3 (human) = PLK3 (human) (UniProt Q9H4B4); experiment: KINOMEscan competition binding; conditions: compound 10.0 µM
# PLK1 (human) = PLK1 (human) (UniProt P53350); experiment: KINOMEscan competition binding; conditions: compound 10.0 µM
# RPS6KA4 KD2 (human) = RPS6KA4 KD2 (human) (UniProt O75676); experiment: KINOMEscan competition binding; conditions: compound 10.0 µM
# PIM2 (human) [1] = target: PIM2 (human) (UniProt Q9P1W9); experiment: SelectScreen, TR FRET
# PIM2 (human), sequence (Q9P1W9 whole entry, looked up): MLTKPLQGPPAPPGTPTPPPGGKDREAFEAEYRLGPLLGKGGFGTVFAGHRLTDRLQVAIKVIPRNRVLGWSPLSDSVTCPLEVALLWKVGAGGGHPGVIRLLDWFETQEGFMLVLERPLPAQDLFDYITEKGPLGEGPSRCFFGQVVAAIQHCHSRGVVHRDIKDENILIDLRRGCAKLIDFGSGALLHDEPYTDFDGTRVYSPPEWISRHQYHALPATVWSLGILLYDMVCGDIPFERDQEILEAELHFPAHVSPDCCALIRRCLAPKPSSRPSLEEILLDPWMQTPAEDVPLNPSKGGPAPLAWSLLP
# PIM1 (human) [2] = target: PIM1 (human) (UniProt P11309); experiment: SelectScreen, TR FRET
# PIM1 (human), sequence (P11309 whole entry, looked up): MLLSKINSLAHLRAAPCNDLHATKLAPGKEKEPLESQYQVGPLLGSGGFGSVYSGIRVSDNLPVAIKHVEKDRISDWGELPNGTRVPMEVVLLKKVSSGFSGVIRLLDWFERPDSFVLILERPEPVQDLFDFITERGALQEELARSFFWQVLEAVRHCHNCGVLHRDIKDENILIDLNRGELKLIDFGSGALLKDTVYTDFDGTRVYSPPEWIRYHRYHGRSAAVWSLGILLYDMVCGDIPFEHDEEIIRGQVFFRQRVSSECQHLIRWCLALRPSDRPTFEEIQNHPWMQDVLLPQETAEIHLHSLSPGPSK
# PIM2 (human) [3] = target: PIM2 (human) (UniProt Q9P1W9); experiment: KINOMEscan competition binding; conditions: compound 10.0 µM
# GSK3A (human) = GSK3A (human) (UniProt P49840); experiment: KINOMEscan competition binding; conditions: compound 10.0 µM
# STK17A (human) = STK17A (human) (UniProt Q9UEE5); experiment: KINOMEscan competition binding; conditions: compound 10.0 µM
# STK17A (human), sequence (Q9UEE5 whole entry, looked up): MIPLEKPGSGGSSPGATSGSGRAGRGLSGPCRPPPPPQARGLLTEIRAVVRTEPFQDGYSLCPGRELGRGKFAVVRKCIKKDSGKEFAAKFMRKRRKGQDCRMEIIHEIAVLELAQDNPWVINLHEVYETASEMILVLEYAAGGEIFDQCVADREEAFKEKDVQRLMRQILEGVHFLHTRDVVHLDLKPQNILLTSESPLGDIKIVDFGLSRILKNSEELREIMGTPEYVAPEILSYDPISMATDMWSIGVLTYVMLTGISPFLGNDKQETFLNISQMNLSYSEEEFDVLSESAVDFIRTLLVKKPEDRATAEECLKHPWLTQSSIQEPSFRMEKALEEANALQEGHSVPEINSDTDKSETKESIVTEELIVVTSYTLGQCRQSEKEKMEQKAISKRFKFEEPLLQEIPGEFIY
# PIM1 (human) [4] = target: PIM1 (human) (UniProt P11309); experiment: KINOMEscan competition binding; conditions: compound 10.0 µM
# PIM3 (human) = PIM3 (human) (UniProt Q86V86); experiment: KINOMEscan competition binding; conditions: compound 10.0 µM
# STK17B (human) = STK17B (human) (UniProt O94768); experiment: KINOMEscan competition binding; conditions: compound 10.0 µM
# STK17B (human), sequence (O94768 whole entry, looked up): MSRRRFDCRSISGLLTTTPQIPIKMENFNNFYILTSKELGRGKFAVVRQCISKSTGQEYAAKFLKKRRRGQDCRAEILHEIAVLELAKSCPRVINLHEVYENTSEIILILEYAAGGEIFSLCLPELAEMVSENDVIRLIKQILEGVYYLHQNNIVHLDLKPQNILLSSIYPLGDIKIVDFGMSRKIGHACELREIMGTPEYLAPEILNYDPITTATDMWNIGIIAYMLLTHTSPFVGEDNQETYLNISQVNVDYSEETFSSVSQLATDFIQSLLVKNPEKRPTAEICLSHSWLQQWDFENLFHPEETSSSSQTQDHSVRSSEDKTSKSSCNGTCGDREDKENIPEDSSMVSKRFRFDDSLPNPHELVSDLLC
# ULK2 (human) = ULK2 (human) (UniProt Q8IYT8); experiment: KINOMEscan competition binding; conditions: compound 10.0 µM
# MAPK7 (human) = MAPK7 (human) (UniProt Q13164); experiment: KINOMEscan competition binding; conditions: compound 10.0 µM
# MYLK (human) = MYLK (human) (UniProt Q15746); experiment: KINOMEscan competition binding; conditions: compound 10.0 µM
# MYLK (human), sequence (Q15746 whole entry, looked up): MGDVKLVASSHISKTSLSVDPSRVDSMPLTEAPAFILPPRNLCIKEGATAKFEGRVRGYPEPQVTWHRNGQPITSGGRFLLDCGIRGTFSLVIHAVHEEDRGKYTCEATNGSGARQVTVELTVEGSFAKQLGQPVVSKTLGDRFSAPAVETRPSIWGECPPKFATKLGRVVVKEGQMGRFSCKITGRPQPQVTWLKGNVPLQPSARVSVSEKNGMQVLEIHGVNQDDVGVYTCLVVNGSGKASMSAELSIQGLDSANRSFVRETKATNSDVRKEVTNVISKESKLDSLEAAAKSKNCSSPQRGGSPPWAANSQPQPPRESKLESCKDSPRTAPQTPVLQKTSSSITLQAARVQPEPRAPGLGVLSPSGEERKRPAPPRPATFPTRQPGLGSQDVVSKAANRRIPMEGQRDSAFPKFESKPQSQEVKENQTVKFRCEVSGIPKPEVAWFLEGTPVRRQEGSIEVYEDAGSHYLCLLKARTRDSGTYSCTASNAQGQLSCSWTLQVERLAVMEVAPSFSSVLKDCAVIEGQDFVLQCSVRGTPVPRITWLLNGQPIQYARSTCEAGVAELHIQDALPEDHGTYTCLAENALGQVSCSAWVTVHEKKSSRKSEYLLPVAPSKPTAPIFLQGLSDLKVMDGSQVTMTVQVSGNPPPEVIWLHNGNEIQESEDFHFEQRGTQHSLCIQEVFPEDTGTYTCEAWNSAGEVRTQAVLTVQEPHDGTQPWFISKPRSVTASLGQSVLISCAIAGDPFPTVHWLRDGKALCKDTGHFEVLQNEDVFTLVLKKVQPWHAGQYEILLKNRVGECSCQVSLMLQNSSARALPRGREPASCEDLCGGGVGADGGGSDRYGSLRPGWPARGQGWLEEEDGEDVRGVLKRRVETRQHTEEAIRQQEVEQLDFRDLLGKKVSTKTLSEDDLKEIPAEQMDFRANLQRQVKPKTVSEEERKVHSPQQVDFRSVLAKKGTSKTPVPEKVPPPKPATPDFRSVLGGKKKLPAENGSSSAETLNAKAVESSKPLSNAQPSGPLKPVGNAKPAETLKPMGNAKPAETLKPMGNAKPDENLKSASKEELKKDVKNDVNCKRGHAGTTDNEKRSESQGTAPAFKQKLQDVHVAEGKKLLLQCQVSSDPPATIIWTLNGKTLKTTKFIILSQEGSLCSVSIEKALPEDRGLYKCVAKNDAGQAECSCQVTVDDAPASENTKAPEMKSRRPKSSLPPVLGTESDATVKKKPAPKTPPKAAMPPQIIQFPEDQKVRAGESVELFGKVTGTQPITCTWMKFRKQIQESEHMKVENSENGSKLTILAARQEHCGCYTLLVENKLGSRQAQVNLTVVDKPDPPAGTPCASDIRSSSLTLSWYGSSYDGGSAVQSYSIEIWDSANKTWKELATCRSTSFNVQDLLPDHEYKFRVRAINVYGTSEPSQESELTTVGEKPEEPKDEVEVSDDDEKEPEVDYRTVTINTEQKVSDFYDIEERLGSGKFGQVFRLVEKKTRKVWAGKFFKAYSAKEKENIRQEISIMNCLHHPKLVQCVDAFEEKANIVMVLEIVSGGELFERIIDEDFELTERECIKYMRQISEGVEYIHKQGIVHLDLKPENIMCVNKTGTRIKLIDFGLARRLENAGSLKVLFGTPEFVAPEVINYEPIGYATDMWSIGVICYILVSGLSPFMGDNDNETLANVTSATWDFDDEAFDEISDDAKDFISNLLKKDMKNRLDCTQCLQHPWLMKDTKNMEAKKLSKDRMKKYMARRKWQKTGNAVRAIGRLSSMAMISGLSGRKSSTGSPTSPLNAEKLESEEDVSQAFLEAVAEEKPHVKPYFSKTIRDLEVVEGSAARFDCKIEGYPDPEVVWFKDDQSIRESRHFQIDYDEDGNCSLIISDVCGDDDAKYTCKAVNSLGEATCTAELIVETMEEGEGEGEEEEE
# CSNK2A2 (human) = CSNK2A2 (human) (UniProt P19784); experiment: KINOMEscan competition binding; conditions: compound 10.0 µM
# GAK (human) = GAK (human) (UniProt O14976); experiment: KINOMEscan competition binding; conditions: compound 10.0 µM
# HIPK1 (human) = HIPK1 (human) (UniProt Q86Z02); experiment: KINOMEscan competition binding; conditions: compound 10.0 µM
# PIK3CG (human) = PIK3CG (human) (UniProt P48736); experiment: KINOMEscan competition binding; conditions: compound 10.0 µM
# DAPK1 (human) = DAPK1 (human) (UniProt P53355); experiment: KINOMEscan competition binding; conditions: compound 10.0 µM
# [5] = target: TYK2 JH2 pseudokinase (human) (UniProt P29597); experiment: KINOMEscan competition binding; conditions: compound 10.0 µM
# PLK4 (human) = PLK4 (human) (UniProt O00444); experiment: KINOMEscan competition binding; conditions: compound 10.0 µM
# CDK16 (human) = CDK16 (human) (UniProt Q00536); experiment: KINOMEscan competition binding; conditions: compound 10.0 µM
# CDK16 (human), sequence (Q00536 whole entry, looked up): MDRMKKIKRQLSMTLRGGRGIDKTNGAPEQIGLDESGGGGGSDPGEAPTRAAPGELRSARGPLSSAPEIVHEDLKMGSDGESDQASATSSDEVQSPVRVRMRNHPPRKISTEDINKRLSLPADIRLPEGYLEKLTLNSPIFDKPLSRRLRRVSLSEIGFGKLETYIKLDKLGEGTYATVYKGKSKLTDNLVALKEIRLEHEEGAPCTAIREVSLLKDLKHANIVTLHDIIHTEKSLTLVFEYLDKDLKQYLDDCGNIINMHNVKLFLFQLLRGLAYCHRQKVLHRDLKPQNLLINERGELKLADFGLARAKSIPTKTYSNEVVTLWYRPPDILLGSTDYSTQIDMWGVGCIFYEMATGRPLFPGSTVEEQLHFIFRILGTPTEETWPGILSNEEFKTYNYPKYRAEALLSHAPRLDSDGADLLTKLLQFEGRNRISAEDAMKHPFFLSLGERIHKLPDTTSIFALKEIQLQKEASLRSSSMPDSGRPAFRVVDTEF
# MAP2K3 (human) = MAP2K3 (human) (UniProt P46734); experiment: KINOMEscan competition binding; conditions: compound 10.0 µM
# RPS6KA2 KD2 (human) = RPS6KA2 KD2 (human) (UniProt Q15349); experiment: KINOMEscan competition binding; conditions: compound 10.0 µM
# RPS6KA6 KD2 (human) = RPS6KA6 KD2 (human) (UniProt Q9UK32); experiment: KINOMEscan competition binding; conditions: compound 10.0 µM
# DCLK1 (human) = DCLK1 (human) (UniProt O15075); experiment: KINOMEscan competition binding; conditions: compound 10.0 µM
# RPS6KA1 KD2 (human) = RPS6KA1 KD2 (human) (UniProt Q15418); experiment: KINOMEscan competition binding; conditions: compound 10.0 µM
# [6] = tested on: EGFR (human), P00533 [G719S]; experiment: KINOMEscan competition binding; conditions: compound 10.0 µM
# MAPK15 (human) = MAPK15 (human) (UniProt Q8TD08); experiment: KINOMEscan competition binding; conditions: compound 10.0 µM
# TAOK1 (human) = TAOK1 (human) (UniProt Q7L7X3); experiment: KINOMEscan competition binding; conditions: compound 10.0 µM
# TTK (human), sequence (P33981 whole entry, looked up): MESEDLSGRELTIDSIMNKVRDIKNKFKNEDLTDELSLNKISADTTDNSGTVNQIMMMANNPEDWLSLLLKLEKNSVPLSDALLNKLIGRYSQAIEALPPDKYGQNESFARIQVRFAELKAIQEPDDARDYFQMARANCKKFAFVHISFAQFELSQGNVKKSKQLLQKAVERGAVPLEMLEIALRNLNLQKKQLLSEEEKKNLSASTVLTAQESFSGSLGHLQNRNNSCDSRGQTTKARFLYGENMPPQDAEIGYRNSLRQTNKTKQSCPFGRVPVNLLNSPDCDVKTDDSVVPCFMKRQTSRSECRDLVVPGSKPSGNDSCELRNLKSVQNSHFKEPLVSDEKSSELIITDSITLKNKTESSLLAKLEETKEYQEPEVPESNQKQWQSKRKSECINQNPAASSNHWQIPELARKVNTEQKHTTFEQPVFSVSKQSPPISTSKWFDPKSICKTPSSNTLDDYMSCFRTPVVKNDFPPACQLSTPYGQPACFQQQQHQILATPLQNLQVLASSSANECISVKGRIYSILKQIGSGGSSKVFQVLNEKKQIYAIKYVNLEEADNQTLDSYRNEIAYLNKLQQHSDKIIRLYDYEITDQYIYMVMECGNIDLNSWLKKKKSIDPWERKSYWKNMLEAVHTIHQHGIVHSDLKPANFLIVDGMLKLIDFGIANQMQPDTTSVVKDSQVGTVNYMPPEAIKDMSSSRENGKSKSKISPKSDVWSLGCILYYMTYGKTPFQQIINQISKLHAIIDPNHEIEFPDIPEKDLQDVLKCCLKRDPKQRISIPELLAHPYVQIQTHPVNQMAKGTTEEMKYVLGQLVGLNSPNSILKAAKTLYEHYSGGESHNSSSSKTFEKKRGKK
compound,measurement,setting,value
CC(C)Oc1cc(N2CCC(O)CC2)ccc1Nc1ncc2c(n1)N1CCC[C@H]1CC(=O)N2C,"kinase still bound, per cent of control",TTK (human),5%
same,"kinase still bound, per cent of control",PLK3 (human),16%
same,"kinase still bound, per cent of control",PLK1 (human),21%
same,"kinase still bound, per cent of control",RPS6KA4 KD2 (human),32%
CN1C(=N)NC(=O)/C1=C/c1ccc(-c2cccc3ccccc23)o1,IC50,PIM2 (human) [1],9210 nM
same,IC50,PIM1 (human) [2],> 10000 nM
same,"kinase still bound, per cent of control",PIM2 (human) [3],2.6%
same,"kinase still bound, per cent of control",GSK3A (human),14%
same,"kinase still bound, per cent of control",STK17A (human),33%
same,"kinase still bound, per cent of control",PIM1 (human) [4],27%
same,"kinase still bound, per cent of control",PIM3 (human),9.6%
same,"kinase still bound, per cent of control",STK17B (human),32%
NS(=O)(=O)c1ccc(-c2ccc(C=C3C(=O)c4ccccc4C3=O)o2)cc1,"kinase still bound, per cent of control",ULK2 (human),22%
CC(C)Oc1cc(C(=O)N2CCC(N3CCN(C)CC3)CC2)ccc1Nc1ncc2c(n1)N(C1CCCC1)[C@@H]1CCC[C@@H]1C(=O)N2C,"kinase still bound, per cent of control",MAPK7 (human),4.8%
same,"kinase still bound, per cent of control",MYLK (human),18%
same,"kinase still bound, per cent of control",PLK1 (human),24%
O=C1NC(=O)/C(=C/c2ccc(-c3ccc(C(=O)Nc4ccc(N5CCNCC5)cc4)cc3)o2)S1,IC50,PIM2 (human) [1],133 nM
same,IC50,PIM1 (human) [2],246 nM
same,"kinase still bound, per cent of control",PIM2 (human) [3],0.75%
same,"kinase still bound, per cent of control",CSNK2A2 (human),21%
same,"kinase still bound, per cent of control",GAK (human),26%
same,"kinase still bound, per cent of control",MYLK (human),27%
same,"kinase still bound, per cent of control",STK17A (human),20%
same,"kinase still bound, per cent of control",PIM1 (human) [4],1.4%
same,"kinase still bound, per cent of control",PIM3 (human),1.2%
same,"kinase still bound, per cent of control",HIPK1 (human),1.1%
same,"kinase still bound, per cent of control",PIK3CG (human),17%
same,"kinase still bound, per cent of control",DAPK1 (human),34%
same,"kinase still bound, per cent of control",[5],14%
same,"kinase still bound, per cent of control",STK17B (human),0.65%
NS(=O)(=O)c1ccc(-c2ccc(/C=C3\SC(=S)NC3=O)o2)cc1,IC50,PIM2 (human) [1],177 nM
same,IC50,PIM1 (human) [2],305 nM
same,"kinase still bound, per cent of control",PLK4 (human),14%
same,"kinase still bound, per cent of control",PIM1 (human) [4],1.8%
same,"kinase still bound, per cent of control",CDK16 (human),10%
same,"kinase still bound, per cent of control",PIM3 (human),2.2%
same,"kinase still bound, per cent of control",PIK3CG (human),22%
NC1=N/C(=C\c2ccc(-c3ccc(S(N)(=O)=O)cc3)o2)C(=O)N1,"kinase still bound, per cent of control",PIM1 (human) [4],9.5%
same,"kinase still bound, per cent of control",PIM3 (human),6%
same,"kinase still bound, per cent of control",MAP2K3 (human),13%
same,"kinase still bound, per cent of control",RPS6KA4 KD2 (human),14%
N=C1NC(=O)/C(=C/c2ccc(-c3ccc4c(C(=O)Nc5cccc(C(F)(F)F)c5)cccc4c3)o2)S1,IC50,PIM2 (human) [1],3420 nM
same,IC50,PIM1 (human) [2],> 10000 nM
Cc1cn(-c2cc(NC(=O)c3cccc4cc(-c5ccc(/C=C6\SC(=O)NC6=O)o5)ccc34)cc(C(F)(F)F)c2)cn1,IC50,PIM2 (human) [1],1430 nM
same,IC50,PIM1 (human) [2],5630 nM
CC(C)Oc1cc(N2CCC(N(C)C)CC2)ccc1Nc1ncc2c(n1)N1CCC[C@H]1CC(=O)N2C,"kinase still bound, per cent of control",RPS6KA2 KD2 (human),9.4%
same,"kinase still bound, per cent of control",TTK (human),12%
same,"kinase still bound, per cent of control",RPS6KA6 KD2 (human),24%
same,"kinase still bound, per cent of control",DCLK1 (human),7.4%
same,"kinase still bound, per cent of control",MYLK (human),26%
same,"kinase still bound, per cent of control",RPS6KA1 KD2 (human),34%
N=C1NC(=O)/C(=C/c2ccc(-c3ccc(C(=O)Nc4ccc(N5CCNCC5)cc4)cc3)o2)S1,IC50,PIM2 (human) [1],214 nM
same,IC50,PIM1 (human) [2],151 nM
CS(=O)(=O)Nc1ccc(-c2cccc(/C=C3\SC(=N)NC3=O)n2)cc1,"kinase still bound, per cent of control",PIM2 (human) [3],9.2%
same,"kinase still bound, per cent of control",[6],16%
same,"kinase still bound, per cent of control",PIM1 (human) [4],23%
same,"kinase still bound, per cent of control",CDK16 (human),10%
same,"kinase still bound, per cent of control",PIM3 (human),13%
same,"kinase still bound, per cent of control",MAP2K3 (human),21%
same,"kinase still bound, per cent of control",MAPK15 (human),22%
same,"kinase still bound, per cent of control",HIPK1 (human),0.4%
same,"kinase still bound, per cent of control",TAOK1 (human),26%
